As a reminder, the Ki is the equilibrium dissociation constant of an inhibitor or competing ligand from its target. A lower Ki goes with tighter binding.

In ChEMBL document CHEMBL1125764, “Muscarinic receptor binding profile of para-substituted caramiphen analogues” (J Med Chem, 1991) one finds Ki data, which are given here for 8 molecules.

Assay [1] deals with T1, Muscarinic acetylcholine receptor M1 (Rattus norvegicus, UniProt P08482).
T1 sequence (P08482 whole entry): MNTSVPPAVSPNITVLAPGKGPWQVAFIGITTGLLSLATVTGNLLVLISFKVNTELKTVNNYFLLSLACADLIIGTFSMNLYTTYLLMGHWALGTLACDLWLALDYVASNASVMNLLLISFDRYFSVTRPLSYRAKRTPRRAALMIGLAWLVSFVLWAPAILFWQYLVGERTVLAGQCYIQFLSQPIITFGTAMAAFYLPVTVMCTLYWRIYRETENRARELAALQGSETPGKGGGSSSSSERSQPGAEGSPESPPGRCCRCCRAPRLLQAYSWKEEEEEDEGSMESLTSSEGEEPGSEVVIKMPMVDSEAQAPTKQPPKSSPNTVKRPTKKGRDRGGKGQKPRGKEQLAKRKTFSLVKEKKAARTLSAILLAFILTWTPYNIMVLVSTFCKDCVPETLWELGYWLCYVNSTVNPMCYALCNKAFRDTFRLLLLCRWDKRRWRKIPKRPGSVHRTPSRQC
Further details: species or system Cortex.

Assay [2] concerns the target T2, Muscarinic acetylcholine receptor M2 (Rattus norvegicus, UniProt P10980).
T2 sequence (P10980 whole entry): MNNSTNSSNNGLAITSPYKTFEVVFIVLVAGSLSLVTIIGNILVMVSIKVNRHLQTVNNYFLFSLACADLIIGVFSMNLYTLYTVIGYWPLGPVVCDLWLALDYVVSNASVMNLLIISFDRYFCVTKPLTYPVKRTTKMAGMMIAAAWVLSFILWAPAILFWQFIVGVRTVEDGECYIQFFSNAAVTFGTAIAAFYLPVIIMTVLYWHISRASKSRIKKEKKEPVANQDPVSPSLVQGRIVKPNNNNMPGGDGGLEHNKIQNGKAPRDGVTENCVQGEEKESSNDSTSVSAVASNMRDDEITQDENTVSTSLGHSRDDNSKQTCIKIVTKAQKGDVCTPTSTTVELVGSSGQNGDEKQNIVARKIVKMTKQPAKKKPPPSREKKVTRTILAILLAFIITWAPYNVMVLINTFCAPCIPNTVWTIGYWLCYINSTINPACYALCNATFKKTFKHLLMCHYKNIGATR
The experiment in a line: Displacement of [3H](-)-quinuclidinyl benzilate(QNB) from muscarinic (M2) receptor in rat heart homogenates. It counts as tissue-based. In general terms: Loss of bound radioactivity is the signal in a displacement assay; it reports binding, not function.

`CCN(CC)CCOC(=O)C1(c2ccccc2)CCCC1`: the inhibition constant Ki came out at 1.21 nM in assay [1] and 31.7 nM in assay [2]. Take `CCN(CC)CCOC(=O)C1(c2ccc([N+](=O)[O-])cc2)CCCC1`: the Ki was found to be 5.52 nM in assay [1] and 390 nM in assay [2].

Take `CCN(CC)CCOC(=O)C1(c2ccc(N)cc2)CCCC1`: the Ki in assay [1] is 20 nM; in assay [2], 116 nM. For `CCN(CC)CCOC(=O)C1(c2ccc(-n3cnnn3)cc2)CCCC1` the same measures were 14.5 nM and 432 nM. Take `CCN(CC)CCOC(=O)C1(c2ccc(I)cc2)CCCC1`: the inhibition constant Ki in assay [1] is 2.11 nM; in assay [2], 123 nM. Turning to `CCN(CC)CCOC(=O)C1(C2CCCCC2)CCCCC1` [DICYCLOMINE], the Ki in assay [2] stood at 47.3 nM. As for `CCN(CC)CCOC(=O)C1(c2ccc(N3CCCC3)cc2)CCCC1`, the Ki came to 151 nM in assay [1] and 551 nM in assay [2].

Turning to `CCN(CC)CCOC(=O)C1(c2ccc(C#N)cc2)CCCC1`, the inhibitory constant (Ki) in assay [1] was found to be 8.12 nM; in assay [2], 213 nM.
